Test results from patent US12281102B2, “Inhibitors of APOL1 and methods of using same” (Vertex Pharmaceuticals Incorporated, priority 2020, dated 2025).

Each molecule was assayed against T1, G1 APOL1 (Homo sapiens, UniProt O14791, I384M/S342G) (assay: Acute APOL1 Thallium Assay with inducible stable clones of HEK 293 cells). Details: HEK 293 T-Rex inducible stable clone expressing G1 APOL1; read-out: Thallium Assay (IC50).
T1 construct: expressed in transfected cells
T1 sequence (O14791 28-398 S342G/I384M): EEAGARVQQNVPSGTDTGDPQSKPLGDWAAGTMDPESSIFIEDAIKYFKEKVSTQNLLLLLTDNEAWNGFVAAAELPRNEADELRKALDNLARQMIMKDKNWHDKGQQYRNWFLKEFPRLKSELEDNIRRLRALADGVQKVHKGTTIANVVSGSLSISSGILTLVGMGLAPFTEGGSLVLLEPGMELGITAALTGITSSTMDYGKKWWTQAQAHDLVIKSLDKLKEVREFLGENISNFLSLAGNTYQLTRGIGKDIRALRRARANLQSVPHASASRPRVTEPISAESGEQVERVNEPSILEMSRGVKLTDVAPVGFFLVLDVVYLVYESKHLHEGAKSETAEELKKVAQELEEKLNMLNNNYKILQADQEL
Format: cell-based
Method in brief: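 APOL1 pore function was measured as thallium influx, detected by a Tl+-sensitive fluorescent dye loaded as AM ester, on a FLIPR Tetra after Tl+ addition. Cells were HEK T-Rex G1 APOL1 clone DC3.25, 26,000 per well, induced with tetracycline at plating in Opti-MEM assay medium.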
O=C1CC(C(=O)N[C@H]2C[C@H](c3c(-c4ccc(F)cc4)[nH]c4c(F)cc(F)cc43)C2)C(=O)N1 (stereo partly drawn) [Compound 128] showed an IC50 of less than 250 nM.
In the case of O=C1CC(C(=O)NC2CC(Cc3c(-c4ccc(F)cc4)[nH]c4c(F)cc(F)cc34)C2)C(=O)N1 (stereo not drawn) [Compound 167], the IC50 is reported as greater than 1000 nM.
Molecule Cc1ccc(C(=O)NC2CC(Cc3c(-c4ccc(F)cc4)[nH]c4c(F)cc(F)cc34)C2)[nH]1 (stereo not drawn) [Compound 172] has an IC50 greater than 1000 nM.
CC(=O)NCC(=O)NC[C@H]1C[C@H](c2c(-c3ccc(F)cc3)[nH]c3c(F)cc(F)cc32)C1 [Compound 250] was tested, and the IC50 was greater than 1000 nM.
In the case of O=C1NCCC1C(=O)NC[C@H]1C[C@@H](c2c(-c3ccc(F)cc3)[nH]c3c(F)cc(F)cc32)C1 (stereo partly drawn) [Compound 303], the IC50 is reported as greater than 1000 nM.
N[C@@H](C(=O)NC[C@H]1C[C@H](c2c(-c3ccc(F)cc3)[nH]c3c(F)cc(F)cc32)C1)C1CC1 [Compound 264] showed an IC50 greater than 1000 nM.
O=c1[nH]c2ccc(S(=O)(=O)NC[C@H]3C[C@H](c4c(-c5ccc(F)cc5)[nH]c5c(F)cc(F)cc54)C3)cc2[nH]1 [Compound 418] gave an IC50 greater than 1000 nM.
Work on N[C@H](CO)C(=O)NC[C@H]1C[C@H](c2c(-c3ccc(F)cc3)[nH]c3c(F)cc(F)cc32)C1 [Compound 201] yielded an IC50 of less than 250 nM.
CC(=O)NC[C@]1(O)C[C@@H](c2c(-c3ccc(F)cc3)[nH]c3c(F)cc(F)cc32)C1 [Compound 431, N-(((1s,3s)-3-(5,7-difluoro-2-(4-fluorophenyl)-1H-indol-3-yl)-1-hydroxycyclobutyl)methyl)acetamide] gave an IC50 greater than 1000 nM.
In the case of O=C(NC[C@H]1C[C@H](c2c(-c3ccc(F)cc3)[nH]c3c(F)cc(F)cc32)C1)C1CCO1 (stereo partly drawn) [Compound 192], the IC50 is reported as less than 250 nM.
O=C(CCO)N1CC(Cc2c(-c3ccc(F)cc3)[nH]c3c(F)cc(F)cc23)C1 [Compound 439] was tested, and the IC50 was less than 250 nM.
NC1CC(c2c(-c3ccc(F)cc3)[nH]c3c(F)cc(C(F)(F)F)cc23)C1 (mixture of isomers) [Compound 1, 3-[7-fluoro-2-(4-fluorophenyl)-5-(trifluoromethyl)-1H-indol-3-yl]cyclobutanamine] showed an IC50 greater than 1000 nM.
In the case of O=C1CC(C(=O)N[C@H]2C[C@@H](c3c(-c4ccc(F)cc4)[nH]c4c(F)cc(F)cc43)C2)CC(=O)N1 [Compound 70], the IC50 is reported as greater than 1000 nM.
O=C1C[C@@H](C(=O)NC[C@H]2C[C@H](c3c(-c4ccc(F)cc4)[nH]c4c(F)cc(F)cc43)C2)N1 [Compound 218] showed an IC50 of 250 to 1000 nM.
NS(=O)(=O)CCC(=O)N[C@H]1C[C@@H](c2c(-c3ccc(F)cc3)[nH]c3c(F)cc(F)cc32)C1 [Compound 51] showed an IC50 greater than 1000 nM.
O=C(Cc1cnccn1)NC[C@H]1C[C@H](c2c(-c3ccc(F)cc3)[nH]c3c(F)cc(F)cc32)C1 [Compound 238] showed an IC50 greater than 1000 nM.
O=C(CCN1CCCC1=O)N[C@H]1C[C@H](c2c(-c3ccc(F)cc3)[nH]c3c(F)cc(F)cc32)C1 [Compound 114] showed an IC50 greater than 1000 nM.
Molecule O=C(CO)N[C@H]1C[C@H](c2c(-c3ccc(F)cc3)[nH]c3c(F)cc(F)cc32)C1 [Compound 429, N-((1r,3r)-3-(5,7-difluoro-2-(4-fluorophenyl)-1H-indol-3-yl)cyclobutyl)-2-hydroxyacetamide] has an IC50 of 250 to 1000 nM.
For CC(C)(C)OC(=O)NCC(=O)NC[C@H]1C[C@@H](c2c(-c3ccc(F)cc3)[nH]c3c(F)cc(F)cc32)C1 [Compound 212], the IC50 was 250 to 1000 nM.
Molecule NS(=O)(=O)CCC(=O)NC[C@H]1C[C@@H](c2c(-c3ccc(F)cc3)[nH]c3c(F)cc(F)cc32)C1 [Compound 232] has an IC50 greater than 1000 nM.
For COCC(C)NS(=O)(=O)NC[C@H]1C[C@H](c2c(-c3ccc(F)cc3)[nH]c3c(F)cc(F)cc32)C1 (mixture of isomers) [Compound 342], the IC50 was greater than 1000 nM.
In the case of CCS(=O)(=O)NC[C@H]1C[C@H](c2c(-c3ccc(F)cc3)[nH]c3c(F)cc(F)cc32)C1 [Compound 413], the IC50 is reported as 250 to 1000 nM.
OCC(O)CNCC1CC(c2c(-c3ccc(F)cc3)[nH]c3c(F)cc(F)cc23)C1 (stereo not drawn) [Compound 385] showed an IC50 of 250 to 1000 nM.
Molecule O=C(CC(=O)N1CCOCC1)N[C@H]1C[C@H](c2c(-c3ccc(F)cc3)[nH]c3c(F)cc(F)cc32)C1 [Compound 120] has an IC50 greater than 1000 nM.
NC(=O)CNC(=O)C1CC(Cc2c(-c3ccc(F)cc3)[nH]c3c(F)cc(F)cc23)C1 (stereo not drawn) [Compound 449, N-(2-amino-2-oxoethyl)-3-((5,7-difluoro-2-(4-fluorophenyl)-1H-indol-3-yl)methyl)cyclobutane-1-carboxamide] was tested, and the IC50 was greater than 1000 nM.
With O=C(CC1CCOCC1)N[C@H]1C[C@H](c2c(-c3ccc(F)cc3)[nH]c3c(F)cc(F)cc32)C1 [Compound 100] the IC50 was greater than 1000 nM.
For Fc1ccc(-c2[nH]c3c(F)cc(F)cc3c2C2CC(NCC(F)F)C2)cc1 (stereo not drawn) [Compound 26], the IC50 was 250 to 1000 nM.
NS(=O)(=O)CCCC(=O)NC[C@H]1C[C@@H](c2c(-c3ccc(F)cc3)[nH]c3c(F)cc(F)cc32)C1 [Compound 280] was tested, and the IC50 was greater than 1000 nM.
O=c1ccc2cc(S(=O)(=O)NC[C@H]3C[C@H](c4c(-c5ccc(F)cc5)[nH]c5c(F)cc(F)cc54)C3)ccc2[nH]1 [Compound 417] showed an IC50 greater than 1000 nM.
In the case of Fc1ccc(-c2[nH]c3c(F)cc(F)cc3c2C2CC(CNCC(F)F)C2)cc1 (stereo not drawn) [Compound 379], the IC50 is reported as 250 to 1000 nM.
Work on O=C(N[C@H]1C[C@H](c2c(-c3ccc(F)cc3)[nH]c3c(F)cc(F)cc32)C1)OCc1ccccc1 [Compound 88] yielded an IC50 greater than 1000 nM.
N[C@@H](CO)C(=O)NC[C@H]1C[C@H](c2c(-c3ccc(F)cc3)[nH]c3c(F)cc(F)cc32)C1 [Compound 194] gave an IC50 of less than 250 nM.
Cc1[nH]cnc1CCNS(=O)(=O)NC[C@H]1C[C@H](c2c(-c3ccc(F)cc3)[nH]c3c(F)cc(F)cc32)C1 [Compound 334] showed an IC50 greater than 1000 nM.
COCCC(=O)NC[C@H]1C[C@@H](c2c(-c3ccc(F)cc3)[nH]c3c(F)cc(F)cc32)C1 [Compound 209] showed an IC50 of 250 to 1000 nM.
In the case of C[C@@H](NC(=O)OC(C)(C)C)C(=O)NC[C@H]1C[C@H](c2c(-c3ccc(F)cc3)[nH]c3c(F)cc(F)cc32)C1 [Compound 295], the IC50 is reported as greater than 1000 nM.
CN1CC(NS(=O)(=O)NC[C@H]2C[C@H](c3c(-c4ccc(F)cc4)[nH]c4c(F)cc(F)cc43)C2)CC1=O (stereo partly drawn) [Compound 336] was tested, and the IC50 was greater than 1000 nM.
For O=C(CCO)N[C@H]1C[C@H](c2c(-c3ccc(F)cc3)[nH]c3c(F)cc(F)cc32)C1 [Compound 95], the IC50 was less than 250 nM.
Molecule O=C(NC[C@H]1C[C@H](c2c(-c3ccc(F)cc3)[nH]c3c(F)cc(F)cc32)C1)[C@H]1CCN1 [Compound 245] has an IC50 greater than 1000 nM.
Molecule O=S(=O)(N[C@H]1C[C@H](c2c(-c3ccc(F)cc3)[nH]c3c(F)cc(F)cc32)C1)c1n[nH]c2ncccc12 [Compound 154] has an IC50 greater than 1000 nM.
Work on OCC1(NC2CC(c3c(-c4ccc(F)cc4)[nH]c4c(F)cc(F)cc34)C2)CC1 (stereo not drawn) [Compound 21] yielded an IC50 of 250 to 1000 nM.
Molecule O=S(=O)(N[C@H]1C[C@@H](c2c(-c3ccc(F)cc3)[nH]c3c(F)cc(F)cc32)C1)c1cn[nH]c1 [Compound 84] has an IC50 greater than 1000 nM.
O=S(=O)(NC[C@H]1C[C@H](c2c(-c3ccc(F)cc3)[nH]c3c(F)cc(F)cc32)C1)NC1(CO)CC1 [Compound 343] was tested, and the IC50 was 250 to 1000 nM.
In the case of O=C1C[C@@H](C(=O)NC[C@H]2C[C@@H](c3c(-c4ccc(F)cc4)[nH]c4c(F)cc(F)cc43)C2)N1 [Compound 241], the IC50 is reported as greater than 1000 nM.
With N#CCS(=O)(=O)NC[C@H]1C[C@H](c2c(-c3ccc(F)cc3)[nH]c3c(F)cc(F)cc32)C1 [Compound 414] the IC50 was 250 to 1000 nM.

Same assay, conditions: Thallium Assay (IC50), HEK 293 T-Rex inducible stable clone expressing G1 APOL1
CC(C)(C)OC(=O)N1CCC[C@@H]1C(=O)NC[C@H]1C[C@H](c2c(-c3ccc(F)cc3)[nH]c3c(F)cc(F)cc32)C1 [Compound 279] was tested, and the IC50 was greater than 1000 nM.
